# According to patent US20240246902A1, “PRODRUGS OF 6-DIAZO-5-OXO-L-NORLEUCINE” (THE JOHNS HOPKINS UNIVERSITY, priority 2021, published 2024):
# Assays:
# [1] = Metabolic stability in swine liver tissue homogenate; assay type: in vitro ADME; details: prodrug 20 μM, 37° C.
# Procedure: (§1) The representative Compounds of the Disclosure were screened for metabolic stability in swine jejunum/liver tissue homogenates, following our previously reported methods (Zimmermann et al., J. Med. Chem., 61(9):3918-29 (2018); Tenora et al., J. Med. Chem., 62(7):3524-38 (2019)). In brief, freshly collected tissues were homogenized by probe sonication in 9× volume of 0.1 M potassium phosphate buffer over ice. Post homogenization, prodrugs were spiked at a concentration of 20 μM (in triplicate) and incubated in an orbital shaker at 37° C. for 60 min. Final concentration of DMSO in the incubations was 0.2% v/v. At each time point (0, 30, 60 min), 100 μL of sample was precipitated with 300 μL of methanol containing internal standard (IS; losartan: 0.5 μM). […] After centrifugation, 50 μL of supernatant was diluted with 50 μL of water, vortexed and submitted for analysis. Prodrug disappearance over time was measured using liquid chromatography tandem mass spectrometry (LC-MS/MS).
# (§2) The processed supernatants were analyzed on a Thermo Scientific Vanquish UPLC system (equipped with Vanquish autosampler, pumps, and column compartment) hyphenated to TSQ Altis mass spectrometer (Thermo Fisher Scientific Inc., Waltham MA). […] The autosampler was operated at 4° C. […] Peak area ratios obtained from peak area counts of analyte and internal standard were used to measure the disappearance of prodrugs.
# [2] = Metabolic stability in swine jejunum (gut) tissue homogenate; assay type: in vitro ADME; details: prodrug 20 μM, 37° C.
# Procedure: as §1, §2
SMILES,Liver stability (% remaining at 60 min) [1] [%],Gut Stability (% remaining at 60 min) [2] [%]
"CC(C)OC(=O)[C@H](CCC(=O)C=[N+]=[N-])NC(=O)C(Cl)Cl [Compound 5e, Isopropyl (S)-6-diazo-2-(2,2-dichloroacetamido)-5-oxohexanoate]",0 ± 0,
"C=CCOC(=O)[C@H](CCC(=O)C=[N+]=[N-])NC(C)=O [Compound 5l, Allyl (S)-2-acetamido-6-diazo-5-oxohexanoate]",12 ± 0,
"CCCC(=O)N[C@@H](Cc1c[nH]c2ccccc12)C(=O)N[C@@H](CCC(=O)C=[N+]=[N-])C(=O)OC(C)C [Compound 8a, Isopropyl (S)-2-((S)-2-butyramido-3-(1H-indol-3-yl)propanamido)-6-diazo-5-oxohexanoate]",5 ± 1,12 ± 1
"CC(C)CC(=O)N[C@@H](Cc1c[nH]c2ccccc12)C(=O)N[C@@H](CCC(=O)C=[N+]=[N-])C(=O)OC(C)C [Compound 8b, Isopropyl (S)-2-((S)-3-(1H-indol-3-yl)-2-(3-methylbutanamido)propanamido)-6-diazo-5-oxohexanoate]",1 ± 0,6 ± 1
"CC(C)OC(=O)[C@H](CCC(=O)C=[N+]=[N-])NC(=O)[C@H](Cc1c[nH]c2ccccc12)NC(=O)C(C)C [Compound 8c, Isopropyl (S)-2-((S)-3-(1H-indol-3-yl)-2-isobutyramidopropanamido)-6-diazo-5-oxohexanoate]",13 ± 0,13 ± 7
"CC(C)OC(=O)[C@H](CCC(=O)C=[N+]=[N-])NC(=O)[C@H](Cc1c[nH]c2ccccc12)NC(=O)C(C)(C)C [Compound 8d, Isopropyl (S)-2-((S)-3-(1H-indol-3-yl)-2-pivalamidopropanamido)-6-diazo-5-oxohexanoate]",2 ± 0,9 ± 1
"CC(C)OC(=O)[C@H](CCC(=O)C=[N+]=[N-])NC(=O)[C@H](Cc1c[nH]c2ccccc12)NC(=O)C1CC1 [Compound 8e, Isopropyl (S)-2-((S)-2-(cyclopropanecarboxamido)-3-(1H-indol-3-yl)propanamido)-6-diazo-5-oxohexanoate]",7 ± 0,9 ± 0
"CC(C)OC(=O)[C@H](CCC(=O)C=[N+]=[N-])NC(=O)[C@H](Cc1c[nH]c2ccccc12)NC(=O)CN(C)C [Compound 8f, Isopropyl (S)-6-diazo-2-((S)-2-(2-(dimethylamino)acetamido)-3-(1H-indol-3-yl)propanamido)-5-oxohexanoate]",2 ± 0,2 ± 0
"CCN(CC)CC(=O)N[C@@H](Cc1c[nH]c2ccccc12)C(=O)N[C@@H](CCC(=O)C=[N+]=[N-])C(=O)OC(C)C [Compound 8g, Isopropyl (S)-6-diazo-2-((S)-2-(2-(diethylamino)acetamido)-3-(1H-indol-3-yl)propanamido)-5-oxohexanoate]",1 ± 0,1 ± 0
"CC(C)OC(=O)[C@H](CCC(=O)C=[N+]=[N-])NC(=O)[C@H](Cc1c[nH]c2ccccc12)NC(=O)CN1CCOCC1 [Compound 8i, Isopropyl (S)-2-((S)-3-(1H-indol-3-yl)-2-(2-morpholinoacetamido)propanamido)-6-diazo-5-oxohexanoate]",0 ± 0,0 ± 0
"CC(C)OC(=O)[C@H](CCC(=O)C=[N+]=[N-])NC(=O)[C@H](Cc1c[nH]c2ccccc12)NC(=O)CN1CCN(C)CC1 [Compound 8j, Isopropyl (S)-2-((S)-3-(1H-indol-3-yl)-2-(2-(4-methylpiperazin-1-yl)acetamido)propanamido)-6-diazo-5-oxohexanoate]",2 ± 0,
"CC(C)OC(=O)[C@H](CCC(=O)C=[N+]=[N-])NC(=O)[C@H](Cc1c[nH]c2ccccc12)NC(=O)c1cccnc1 [Compound 8l, Isopropyl (S)-2-((S)-3-(1H-indol-3-yl)-2-(nicotinamido)propanamido)-6-diazo-5-oxohexanoate]",0 ± 0,2 ± 0
"CC(C)OC(=O)[C@H](CCC(=O)C=[N+]=[N-])NC(=O)[C@H](Cc1c[nH]c2ccccc12)NC(=O)c1ccncc1 [Compound 8m, Isopropyl (S)-2-((S)-3-(1H-indol-3-yl)-2-(isonicotinamido)propanamido)-6-diazo-5-oxohexanoate]",0 ± 0,
"Cn1cc(C[C@H](NC(=O)C(Cl)Cl)C(=O)N[C@@H](CCC(=O)C=[N+]=[N-])C(=O)OC(C)(C)C)c2ccccc21 [Compound 12h, tert-Butyl (S)-6-diazo-2-((S)-2-(2,2-dichloroacetamido)-3-(1-methyl-1H-indol-3-yl)propanamido)-5-oxohexanoate]",50 ± 3,
"CC(=O)NCC(=O)N[C@@H](CCC(=O)C=[N+]=[N-])C(=O)OC(C)(C)C [Compound 14a, tert-Butyl (S)-2-(2-acetamidoacetamido)-6-diazo-5-oxohexanoate]",88 ± 1,96 ± 0
"CC(=O)N[C@@H](Cc1cccnc1)C(=O)N[C@@H](CCC(=O)C=[N+]=[N-])C(=O)OC(C)(C)C [Compound 17a, tert-Butyl (S)-2-((S)-2-acetamido-3-(pyridin-3-yl)propanamido)-6-diazo-5-oxohexanoate]",103 ± 3,96 ± 1
"CN(C)CC(=O)N[C@@H](CC(C)(C)C)C(=O)N[C@@H](CCC(=O)C=[N+]=[N-])C(=O)OC(C)(C)C [Compound 24a, tert-Butyl (S)-6-diazo-2-((S)-2-(2-(dimethylamino)acetamido)-4,4-dimethylpentanamido)-5-oxohexanoate]",78 ± 1,
"CN(C)[C@@H](Cc1ccccc1)C(=O)N[C@@H](CCC(=O)C=[N+]=[N-])C(=O)OC(C)(C)C [Compound 26a, tert-Butyl (S)-6-diazo-2-((S)-2-(dimethylamino)-3-phenylpropanamido)-5-oxohexanoate]",71 ± 0,
"CN(C)CC(=O)NCC(=O)N[C@@H](CCC(=O)C=[N+]=[N-])C(N)=O [Compound 31c, (S)-6-Diazo-2-(2-(2-(dimethylamino)acetamido)acetamido)-5-oxohexanamide]",89 ± 4,
"CC(C)C[C@H](NC(=O)CN(C)C)C(=O)N[C@@H](CCC(=O)C=[N+]=[N-])C(N)=O [Compound 31d, (S)-6-Diazo-2-((S)-2-(2-(dimethylamino)acetamido)-4-methylpentanamido)-5-oxohexanamide]",90 ± 1,
"CN(C)CC(=O)N[C@@H](Cc1ccccc1)C(=O)N[C@@H](CCC(=O)C=[N+]=[N-])C(N)=O [Compound 31e, (S)-6-Diazo-2-((S)-2-(2-(dimethylamino)acetamido)-3-phenylpropanamido)-5-oxohexanamide]",39 ± 0,
